According to ChEMBL document CHEMBL3509421, “FDA drug approval package for diclofenac acid (NDA 22-202 CP, Ref ID: 3374276)”:

Experiments:
[1] = Mean AUC (0-t) of diclofenac following single oral dosing of 50 mg diclofenac potassium softgel capsule in healthy human; assay type: ADME, organism-based; design: dietary status Fed, dose 50 mg, dosed compound id 2.46815e+06, dosed compound name Diclofenac potassium, gender Mixed, regimen Single, route oral, study doses 25/50 mg; conditions: both, plasma
[2] = clinical; conditions: both, human, plasma, po, 50 mg
[3] = Mean Kel of diclofenac potassium following oral dosing of Cataflam 50 mf tablet in healthy human; assay type: ADME, organism-based; design: dietary status Fed, dose 50 mg, dosed compound id 2.46815e+06, dosed compound name Diclofenac potassium, gender Mixed, regimen Single, route oral, study doses 50 mg; conditions: both, plasma, 50 mg
[4] = Median tmax of diclofenac following single oral dosing of 50 mg Cataflam tablet in healthy human; assay type: ADME, organism-based; design: dietary status Fasting, dose 50 mg, dosed compound id 2.46815e+06, dosed compound name Diclofenac potassium, gender Mixed, regimen Single, route oral; conditions: both, plasma, read-out: Median Tmax
[5] = Mean AUC(0-t) of diclofenac potassium following oral dosing of PRO-513 50 mg sachet in healthy human; assay type: ADME, organism-based; design: dietary status Fasting, dose 50 mg, dosed compound id 2.46815e+06, dosed compound name Diclofenac potassium, gender Mixed, regimen Single, route oral, study doses 50 mg; conditions: both, plasma
[6] = Mean minimum Tmax value of diclofenac potassium following oral dosing of PRO-513 50 mg sachet in healthy human; assay type: ADME, organism-based, Plasma; design: dietary status Fasting, dose 50 mg, dosed compound id 2.46815e+06, dosed compound name Diclofenac potassium, gender Mixed, regimen Single, route oral, study doses 50 mg; conditions: in vivo
[7] = Geometric mean for AUC (0-infinity) of diclofenac following single oral dosing of 50 mg Cataflam tablet in healthy human; assay type: ADME, organism-based, Plasma; design: time infinity, dietary status Fasting, dose 50 mg, dosed compound id 2.46815e+06, dosed compound name Diclofenac potassium, gender Mixed, regimen Single, route oral; conditions: in vivo
[8] = Mean AUC (0-t) value of diclofenac following single oral dosing of 50 mg Cataflam tablet in healthy human; assay type: ADME, organism-based; design: dietary status Fasting, dose 50 mg, dosed compound id 2.46815e+06, dosed compound name Diclofenac potassium, gender Mixed, regimen Single, route oral; conditions: both, plasma
[9] = Mean Cmax of diclofenac following single oral dosing of 25 mg diclofenac potassium soft gelatin capsule in healthy human; assay type: ADME, organism-based; design: dietary status Fasting, dose 25 mg, dosed compound id 2.46815e+06, dosed compound name Diclofenac potassium, gender Mixed, regimen Single, route oral, study doses 25/50 mg; conditions: both, plasma
[10] = Minimum tmax of diclofenac following single oral dosing of 35 mg Zorvolex capsule in healthy human; assay type: ADME, organism-based, Plasma; design: dietary status Fasting, dose 35 mg, dosed compound id 2.46815e+06, dosed compound name Diclofenac, gender Mixed, regimen Single, route oral; conditions: in vivo
[11] = Mean AUC(0-t) of diclofenac potassium following oral dosing of Cataflam 50 mf tablet in healthy human; assay type: ADME, organism-based; design: dietary status Fed, dose 50 mg, dosed compound id 2.46815e+06, dosed compound name Diclofenac potassium, gender Mixed, regimen Single, route oral, study doses 50 mg; conditions: both, plasma, 50 mg
[12] = (§1) Mean median Tmax value of diclofenac potassium following oral dosing of Cataflam 50 mf tablet in healthy human; assay type: ADME, organism-based; design: dietary status Fed, dose 50 mg, dosed compound id 2.46815e+06, dosed compound name Diclofenac potassium, gender Mixed, regimen Single, route oral, study doses 50 mg; conditions: both, plasma, 50 mg, read-out: Median Tmax
[13] = Mean maximum Tmax value of diclofenac potassium following oral dosing of Cataflam 50 mf tablet in healthy human; assay type: ADME, organism-based; design: dietary status Fed, dose 50 mg, dosed compound id 2.46815e+06, dosed compound name Diclofenac potassium, gender Mixed, regimen Single, route oral, study doses 50 mg; conditions: both, plasma, 50 mg, read-out: Maximum Tmax
[14] = clinical; conditions: both, human, plasma, po, 50 mg; remark: listed apart in the source
Description: Mean terminal elimination half-life of diclofenac following single oral dosing of 50 mg diclofenac potassium softgel capsule in healthy human

[15] = Geometric mean for Cmax of diclofenac following single oral dosing of 50 mg Cataflam tablet in healthy human; assay type: ADME, organism-based; design: dietary status Fed, dose 50 mg, dosed compound id 2.46815e+06, dosed compound name Diclofenac potassium, gender Mixed, regimen Single, route oral; conditions: both, plasma
[16] = clinical; conditions: both, human, plasma, po, 35 mg
[17] = Minimum tmax of diclofenac following single oral dosing of 50 mg Cataflam tablet in healthy human; assay type: ADME, organism-based, Plasma; design: dietary status Fed, dose 50 mg, dosed compound id 2.46815e+06, dosed compound name Diclofenac potassium, gender Mixed, regimen Single, route oral; conditions: in vivo
[18] = Geometric mean for AUC (0-t) of diclofenac following single oral dosing of 18 mg Zorvolex capsule in healthy human; assay type: ADME, organism-based; design: dietary status Fasting, dose 18 mg, dosed compound id 2.46815e+06, dosed compound name Diclofenac, gender Mixed, regimen Single, route oral; conditions: both, plasma
[19] = Mean AUC(0-infinity) of diclofenac potassium following oral dosing of PRO-513 50 mg sachet in healthy human; assay type: ADME, organism-based; design: time infinity, dietary status Fed, dose 50 mg, dosed compound id 2.46815e+06, dosed compound name Diclofenac potassium, gender Mixed, regimen Single, route oral, study doses 50 mg; conditions: both, plasma, read-out: AUC(0-infinity)
[20] = Mean Tmax of diclofenac following single oral dosing of 50 mg diclofenac potassium softgel capsule in healthy human; assay type: ADME, organism-based; design: dietary status Fed, dose 50 mg, dosed compound id 2.46815e+06, dosed compound name Diclofenac potassium, gender Mixed, regimen Single, route oral, study doses 25/50 mg; conditions: both, plasma
[21] = as §1; assay type: ADME, organism-based; design: dietary status Fasting, dose 50 mg, dosed compound id 2.46815e+06, dosed compound name Diclofenac potassium, gender Mixed, regimen Single, route oral, study doses 50 mg; conditions: both, plasma, 50 mg, read-out: Median Tmax
[22] = Minimum tmax of diclofenac following single oral dosing of 18 mg Zorvolex capsule in healthy human; assay type: ADME, organism-based, Plasma; design: dietary status Fasting, dose 18 mg, dosed compound id 2.46815e+06, dosed compound name Diclofenac, gender Mixed, regimen Single, route oral; conditions: in vivo
[23] = Mean AUC(0-infinity) of diclofenac following single oral dosing of 50 mg Cataflam in healthy human; assay type: ADME, organism-based; design: time infinity, dietary status Fasting, dose 50 mg, dosed compound id 2.46815e+06, dosed compound name Diclofenac potassium, gender Mixed, regimen Single, route oral, study doses 50 mg; conditions: both, plasma, read-out: AUC (0-infinity)
[24] = Mean Cmax of diclofenac potassium following oral dosing of Cataflam 50 mf tablet in healthy human; assay type: ADME, organism-based; design: dietary status Fasting, dose 50 mg, dosed compound id 2.46815e+06, dosed compound name Diclofenac potassium, gender Mixed, regimen Single, route oral, study doses 50 mg; conditions: both, plasma, 50 mg
[25] = Mean AUC (0-infinity) value of diclofenac following single oral dosing of 35 mg Zorvolex capsule in healthy human; assay type: ADME, organism-based; design: time infinity, dietary status Fasting, dose 35 mg, dosed compound id 2.46815e+06, dosed compound name Diclofenac, gender Mixed, regimen Single, route oral; conditions: both, plasma, read-out: AUC (0-infinity)
[26] = Mean AUC(0-infinity) of diclofenac following single oral dosing of 50 mg diclofenac potassium soft gelatin capsule in healthy human; assay type: ADME, organism-based; design: time infinity, dietary status Fasting, dose 50 mg, dosed compound id 2.46815e+06, dosed compound name Diclofenac potassium, gender Mixed, regimen Single, route oral, study doses 25/50 mg; conditions: both, plasma, read-out: AUC (0-infinity)
[27] = Mean Cmax of diclofenac potassium following oral dosing of PRO-513 50 mg sachet in healthy human; assay type: ADME, organism-based; design: dietary status Fed, dose 50 mg, dosed compound id 2.46815e+06, dosed compound name Diclofenac potassium, gender Mixed, regimen Single, route oral, study doses 50 mg; conditions: both, plasma
[28] = clinical; conditions: both, human, plasma, po, 50 mg; remark: listed apart in the source
[29] = Mean minimum Tmax value of diclofenac potassium following oral dosing of Cataflam 50 mf tablet in healthy human; assay type: ADME, organism-based; design: dietary status Fasting, dose 50 mg, dosed compound id 2.46815e+06, dosed compound name Diclofenac potassium, gender Mixed, regimen Single, route oral, study doses 50 mg; conditions: both, plasma, 50 mg, read-out: Minimum Tmax
[30] = clinical; conditions: both, human, plasma, po, 25 mg
Description: Mean terminal elimination half-life of diclofenac following single oral dosing of 25 mg diclofenac potassium softgel capsule in healthy human

[31] = Geometric mean for AUC (0-infinity) of diclofenac following single oral dosing of 35 mg Zorvolex capsule in healthy human; assay type: ADME, organism-based; design: time infinity, dietary status Fasting, dose 35 mg, dosed compound id 2.46815e+06, dosed compound name Diclofenac, gender Mixed, regimen Single, route oral; conditions: both, plasma, read-out: AUC (0-infinity)

O=C(O)Cc1ccccc1Nc1c(Cl)cccc1Cl [DICLOFENAC]
AUC(0-t) [1]: 1420 ng·h/mL | half-life [2]: 2.15 h | k el [3]: 0.000136 s⁻¹ | Tmax [4]: 1 h | AUC(0-t) [5]: 1240 ng·h/mL | Minimum Tmax [6]: 0.17 h | AUC (0-infinity) [7]: 1301.961 ng·h/mL | AUC(0-t) [8]: 1320 ng·h/mL | Cmax [9]: 1120 ng/mL | Minimum Tmax [10]: 0.47 h | AUC(0-t) [11]: 1060 ng·h/mL | Tmax [12]: 1.25 h | Tmax [13]: 8 h | half-life [14]: 1.1 h | Cmax [15]: 621 ng/mL | half-life [16]: 2.24 h | Minimum Tmax [17]: 0.5 h | AUC(0-t) [18]: 478 ng·h/mL | AUC(0-inf) [19]: 1080 ng·h/mL | Tmax [20]: 1.28 h | Tmax [21]: 0.5 h | Minimum Tmax [22]: 0.5 h | AUC(0-inf) [23]: 1140 ng·h/mL | Cmax [24]: 1160 ng/mL | AUC(0-inf) [25]: 1000 ng·h/mL | AUC(0-inf) [26]: 1230 ng·h/mL | Cmax [27]: 506 ng/mL | half-life [28]: 2.27 h | Tmax [29]: 0.25 h | half-life [30]: 1.04 h | AUC(0-inf) [31]: 979 ng·h/mL
